# Assay results from article PMC12355554, “Development of novel mitochondrial pyruvate carrier inhibitors for breast cancer treatment” (The Journal of Biological Chemistry, 2025).
# Assays:
# [1] = target: T1, mitochondrial pyruvate carrier (MPC) (Mus musculus, UniProt P63030+Q9D023); test: Methyl pyruvate reversal of inhibited Pyr-driven respiration; type: cell-based, murine; conditions: permeabilized 4T1 cells; 20 mM methyl Pyr
# T1 construct: host or cells: 4T1 murine breast cancer cells, rPFO-permeabilized
# T1 sequence (P63030 1-109): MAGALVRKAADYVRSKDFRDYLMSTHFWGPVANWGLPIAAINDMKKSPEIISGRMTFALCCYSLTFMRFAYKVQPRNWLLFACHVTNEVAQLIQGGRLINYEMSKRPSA
# T1 sequence (Q9D023 1-127): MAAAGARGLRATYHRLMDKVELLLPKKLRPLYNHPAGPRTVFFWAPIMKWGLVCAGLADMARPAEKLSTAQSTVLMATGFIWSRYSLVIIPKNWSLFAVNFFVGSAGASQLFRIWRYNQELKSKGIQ
# Description: Although our initial experiments and previous literature illustrate the ability of the candidate compounds to inhibit Pyr-driven respiration, we sought to investigate the ability of candidate compounds to inhibit respiration fueled by other metabolic substrates, glutamate and succinate (Fig. 2). Glutamate, similar to Pyr oxidation, results in NADH equivalents that fuel complex I-mediated respiration, and succinate metabolism offers FADH2 for electrons in complex II-driven respiratory processes. […] To further validate the mode of action of the candidate compounds, a series of similar Seahorse experiments were employed (Fig. 2, A–C). In these experiments, 4T1 cells were first permeabilized and were then offered metabolic substrates Pyr (Pyr/Mal; Fig. 2A), glutamate (Glu/Mal, Fig. 2B), or succinate (Fig. 2C), and the resulting OCR was observed. As described previously, Mal and DCA were included in the substrate milieu of glutamate respiration experiments. […] To validate that inhibition of Pyr respiration is due to mitochondrial Pyr uptake and not other Pyr-processing enzymes (i.e., Pyr dehydrogenase), a parallel experiment using methyl pyruvate (MePyr) was employed (Fig. 2, E and F). MePyr is permeable to the mitochondrial membranes, where in the matrix, mitochondrial esterase hydrolysis activity provides Pyr.
# Permeabilized cell assays were performed using rPFO as described previously. […]
# 67NR [2] = test: MTT cell proliferation inhibition assay, 67NR; type: cell-based, murine; conditions: Mus musculus, 72 h, 3 days, average ± SEM
# Protocol: Confluent cell cultures were treated with trypsin and resuspended at 5 × 10^4 cells/ml. To a 96-well plate, 100 μl of the 5 × 10^4 cells/ml solution were added and allowed to incubate at 37 °C, 5% CO2 for 24 h. Compounds were then added and allowed to incubate for 3 days. […] Following the 4-h incubation with 3-(4,5-dimethylthiazol-2-yl)-2,5-diphenyltetrazolium bromide, 100 μl of SDS (0.1 g/ml, 0.01 N HCl) was added, and 96-well plates were allowed to incubate for an additional 4 h. […] Treatment absorbances are taken as percentages of the average untreated absorbances and plotted against log(concentration) in GraphPad Prism 10 (GraphPad Software, Inc) to generate effective concentration values where 50% of the cells are not proliferating (EC50).
# MDA-MB-231 = test: Sulforhodamine B cell proliferation inhibition assay, MDA-MB-231; type: cell-based; conditions: Homo sapiens, 72 h
# Protocol: (§1) Cells were seeded (3 × 10^4 cells/well) in 48-well plates and incubated overnight (37 °C, 5% CO2). Test compounds were then exposed to cells in duplicate in serial dilution fashion and were incubated for an additional 72 h (37 °C, 5% CO2). Media were then aspirated, and cells were washed three times with cold PBS and left overnight to dry fix. […] Dyed cells were then lysed with Tris (10 mM, pH 10), and absorbance readings were recorded at 540 nm of each well. Treatment absorbances are taken as percentages of the average untreated absorbances and plotted against log(concentration) in GraphPad Prism 10 to generate effective concentration values where 50% of the cells are not proliferating (EC50).
# 67NR [3] = test: Sulforhodamine B cell proliferation inhibition assay, 67NR; type: cell-based, murine; conditions: Mus musculus, 72 h, average ± SEM
# Protocol: as §1
# [4] = General tolerability dose escalation, intraperitoneal, CD-1 mice; type: in vivo
# Protocol: After obtaining PK parameters of C5, we carried out a general tolerability dose escalation study via intraperitoneal injection to determine a maximum tolerated dose for future tumor efficacy studies (Fig. S3B). […] In CD-1 mice, dosing began at 5 mg/kg for 7 days. After 7 days, dosing was increased to 6 mg/kg; however, at this dose, there were acute respiratory effects and lethargy observed in the mice deeming it a toxic dose.
# Dosing was increased to 6 mg/kg on day 8, but significant acute respiratory effects were observed indicating toxicity. Due to this acute effect, the study was terminated, and all mice were euthanized. The study was carried out following Institutional Animal Care and Use Committee protocol 2211-40546A.
# in vivo = conditions: BALB/c, mouse; for bioavailability / Vd / clearance: plasma; for half-life: in vivo
# Protocol: IV dosing allows for analysis under the assumption of total systemic absorption (Fig. S3A).
# In a contract organization Medicilon, 35 male and 35 female BALB/c mice were randomized and put into two groups (n = 15) per sex for each route of administration (4 total groups). Extra mice were used for collection of blank plasma. […] Each time point utilized three mice per group, and each mouse had two blood draws. The blood samples were collected in K2EDTA tubes on ice, centrifuged at 6800g (6 min, 4 °C) to generate plasma samples. The plasma samples were stored below −70 °C until LC–MS/MS analysis. […] After data acquisition, noncompartmental analysis parameters were calculated by Pheonix WinNonlin 7.0.
# 4T1 cells = test: L-lactate accumulation assay, 4T1; conditions: MCT1-expressing 4T1 cells; 24 h
# Protocol: To test this, we assayed intracellular lactate accumulation following C5 treatment in MCT1-expressing 4T1 cells and MCT4-expressing MDA-MB-231 cells using commercially available lactate kits.
# On the third day, media were aspirated, and wells were rinsed twice with cold PBS. […] At this time, 1 ml of PBS was added to each well and underwent freeze–thaw lysis at −80 °C. Media in each well were aliquoted and centrifuged (16,000g, 10 min, 4 °C). The lysate supernatant was then aliquoted, and pellet was discarded. L-lactate concentration was then determined using Eton Biosciences L-Lactate assay kit 1 by mixing lysate sample with L-lactate assay solution in duplicate, incubating for 30 min (37 °C, 0% CO2) and measuring absorbance of enzyme produced INT formazan at 490 nm using a BioTek Synergy 2 plate reader. Absorbance values were compared with an L-lactate standard curve concomitantly ran with test samples to determine lactate concentration in each sample. Lactate concentrations were normalized to total protein using a Pierce Bicinchoninic Acid Protein Assay Kit.
# 67NR tumor = test: Tumor efficacy study in a 67NR syngraft; conditions: 14-day treatment
# [5] = system: MPC1 and MPC2 KO 4T1 cells; test: Pyr-driven respiration in CRISPR-Cas9 MPC1/MPC2 KO 4T1 cells; conditions: permeabilized MPC1/MPC2 KO 4T1 cells, FCCP stimulated
compound,measurement,setting,value
"CN(Cc1ccc(C(F)(F)F)cc1)c1ccc2cc(C(=O)O)c(=O)oc2c1.NC(CO)(CO)CO [C5, 1,3-dihydroxy-2-(hydroxymethyl)propan-2-aminium 7-(methyl(4-(trifluoromethyl)benzyl)amino)-2-oxo-2H-chromene-3-carboxylate]",reversal of Pyr-driven respiration effects by methyl pyruvate,[1],able to reverse
same,EC50,67NR [2],48 ± 4.3 µM
same,EC50,MDA-MB-231,> 1000 µM
same,EC50,67NR [3],94.7 ± 12.9 µM
same,toxic dose (acute respiratory effects and lethargy),[4],6 mg/kg
same,MTD at 7 days,"[4]; female, mouse, in vivo, ip, once daily 7 days, read-out: maximum tolerated dose",5 mg/kg
same,clinical observations after single oral dose,"oral 10, 25, and 40 mg/kg, 7 days",no signs of clinical toxicity
same,"gross pathology, including general cardiotoxicity, after organ resection","oral, end of study",no gross pathology
same,bioavailability,"in vivo; both, po, 5 mg/kg",~100%
same,half-life,"in vivo; female, iv, 1 mg/kg",3.15 h
same,half-life,"in vivo; female, po, 5 mg/kg",4.41 h
same,Vd,"in vivo; female, iv, 1 mg/kg",6.92 L/kg
same,clearance,"in vivo; female, iv, 1 mg/kg",1.6 L/h/kg
same,bioavailability,"in vivo; female, po, 5 mg/kg",125%
same,half-life,"in vivo; male, iv, 1 mg/kg",3.65 h
same,half-life,"in vivo; male, po, 5 mg/kg",4.04 h
same,Vd,"in vivo; male, iv, 1 mg/kg",10.2 L/kg
same,clearance,"in vivo; male, iv, 1 mg/kg",2.06 L/h/kg
same,bioavailability,"in vivo; male, po, 5 mg/kg",124%
same,intracellular lactate accumulation,4T1 cells,potent accumulation of lactate
same,mouse body weight,67NR tumor,remained stable
same,effects on Pyr-driven maximal respiration in MPC-KO lines,[5],largely diminished
